Assay results as given in US8703752B2 (priority 2003, dated 2014).

Key:
[1] = test system: Hedgehog protein signaling pathway; test: Inhibition of Shh-induced differentiation of C3H10T1/2 cells (alkaline phosphatase activity, OD 415 nm); assay type: cell-based, mouse; conditions: for inhibition of the alkaline phosphatase activity induced by the overexpression of Shh: 10 μM, 5 days, C3H10T1/2 cells transfected with Shh plasmid pRK5
Description: The differentiation of the C3H10T1/2 cells, which is accompanied by induction of alkaline phosphatase activity, is then evaluated by measuring the optical density at 415 nm, in the presence of the alkaline phosphatase substrate, para-nitrophenyl phosphate. The values indicated correspond to the mean±standard error (n=4), and
The inhibition of differentiation of the C3H10T1/2 cells is expressed through the percentage alkaline phosphatase activity, relative to the nontreated cells (maximum activity=100%). The values indicated correspond to the mean±standard error (n=4) of two independent experiments.
The C3H10T1/2 pluripotent fibroblast cell line (ATCC) is cultured under the conditions recommended by the ATCC. C3H10T1/2 cells were transfected with the plasmid pRK5 encoding the mouse Shh protein (Taipale et al., Nature, 2001, 411, 349-354), using calcium phosphate, according to conventional protocols.

mammalian embryos = conditions: cited from earlier work
glucocorticoid receptors = glucocorticoid receptors (Homo sapiens, UniProt P04150); conditions: cited from earlier work
Sequence of glucocorticoid receptors (P04150 whole entry): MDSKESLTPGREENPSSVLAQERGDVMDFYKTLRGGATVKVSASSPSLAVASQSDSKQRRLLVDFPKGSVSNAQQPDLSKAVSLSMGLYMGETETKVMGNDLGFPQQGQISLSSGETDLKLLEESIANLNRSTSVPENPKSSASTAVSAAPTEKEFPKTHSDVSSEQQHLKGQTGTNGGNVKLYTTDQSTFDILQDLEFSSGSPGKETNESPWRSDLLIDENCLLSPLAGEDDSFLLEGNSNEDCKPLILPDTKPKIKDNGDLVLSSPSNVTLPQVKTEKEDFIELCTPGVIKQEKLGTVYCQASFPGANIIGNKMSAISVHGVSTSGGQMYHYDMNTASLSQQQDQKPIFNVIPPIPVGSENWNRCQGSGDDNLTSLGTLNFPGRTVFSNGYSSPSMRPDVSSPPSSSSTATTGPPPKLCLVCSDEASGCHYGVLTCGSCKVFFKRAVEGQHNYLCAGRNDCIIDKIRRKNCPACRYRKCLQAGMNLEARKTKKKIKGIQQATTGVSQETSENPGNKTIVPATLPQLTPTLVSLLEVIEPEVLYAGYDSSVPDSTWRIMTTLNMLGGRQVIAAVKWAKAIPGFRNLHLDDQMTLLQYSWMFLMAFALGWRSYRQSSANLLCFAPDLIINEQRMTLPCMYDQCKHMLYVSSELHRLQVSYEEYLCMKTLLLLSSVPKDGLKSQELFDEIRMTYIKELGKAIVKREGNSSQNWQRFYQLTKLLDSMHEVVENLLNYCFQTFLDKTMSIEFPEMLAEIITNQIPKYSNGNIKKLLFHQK

| Structure (SMILES) | inhibition of the alkaline phosphatase activity induced by the overexpression of Shh [1] | teratogenic effect (mammalian embryos) | IC50 ([1]; C3H10T1/2 cells transfected with Shh plasmid pRK5, treated 5 days, 1 nM to 10 μM, alkaline phosphatase activity, mean±standard error (n=4), two experiments, read-out: concentration that inhibits 50% of cell differentiation (IC50)) [µM] | affinity for glucocorticoid receptors (glucocorticoid receptors) |
| --- | --- | --- | --- | --- |
| CC1=C2C[C@H]3[C@@H](CC=C4C[C@@H](O)CC[C@@]43C)[C@@H]2CC[C@]12O[C@@H]1C[C@H](C)CN[C@H]1[C@H]2C [cyclopamine] | completely inhibited | teratogenic agent that causes holoprosencephaly and cyclopia | – | – |
| CC#C[C@]1(O)CC[C@H]2[C@@H]3CCC4=CC(=O)CCC4=C3[C@@H](c3ccc(N(C)C)cc3)C[C@@]21C [mifepristone, 17β-hydroxy-11β-(4-dimethylaminophenyl)-17α-(prop-1-ynyl)estra-4,9-dien-3-one] | completely inhibits | devoid of any teratogenic effect | 3.7 | strong affinity |
